According to the Deep4Chem optical property database:
Blank lines part the entries; values can stand above or below the molecule they belong to.

Assay: solvent given as SMILES

emission maximum (in CC#N): 470 nm
emission maximum (in CCCCCC): 456 nm
emission maximum (in ClCCl): 471 nm
SMILES: CC(C)(C)c1ccc(N(c2ccc(C(C)(C)C)cc2)c2ccc3c(N(c4ccc(C(C)(C)C)cc4)c4ccc(C(C)(C)C)cc4)cc4c5cc(N(c6ccc(C(C)(C)C)cc6)c6ccc(C(C)(C)C)cc6)ccc5c(N(c5ccc(C(C)(C)C)cc5)c5ccc(C(C)(C)C)cc5)cc4c3c2)cc1

emission maximum (in C1CCOC1): 368.6 nm
SMILES: CCCCCCCCCCCCCCn1c(-c2cc(-c3nc4ccc(C)cc4n3CCCCCCCCCCCCCC)cc(-c3nc4ccc(C)cc4n3CCCCCCCCCCCCCC)c2)nc2ccc(C)cc21

emission maximum (in O): 420 nm
SMILES: Fc1cc(F)c2cc3cccc[n+]3cc2c1

emission maximum (in C1CCOC1): 458 nm
SMILES: COc1cc2c(cc1-c1ccc(C(F)(F)F)cc1)Cc1c3c(c4c(c1-2)-c1cc(OC)c(-c2ccc(C(F)(F)F)cc2)cc1C4)C(=O)N(CCC(C)C)C3=O

emission maximum (in ClCCl): 449 nm
SMILES: COc1ccc(CCNC(=O)c2sc(-c3ccc(-c4cc(-c5ccc(C(C)(C)C)cc5)c(C(=O)NCCc5ccc(OC)c(OC)c5)s4)s3)cc2-c2ccc(C(C)(C)C)cc2)cc1OC

emission maximum (in CC#N): 417 nm
emission maximum (in CC(C)O): 421 nm
emission maximum (in CCO): 423 nm
emission maximum (in CO): 425 nm
emission maximum (in ClC(Cl)Cl): 417 nm
emission maximum (in ClCCl): 417 nm
SMILES: Cc1cccc2cc3c(=O)n(C)c(=O)n(C)c3nc12

SMILES: Oc1ccccc1/C=N/N=C/c1ccccc1O
emission maximum (in CC#N): 588.24 nm
emission maximum (in CC(C)CCCC(C)CCCC(C)CCCCC(C)CCCC(C)CCCC(C)C): 583.09 nm
emission maximum (in CCCCCC): 578.03 nm
emission maximum (in CCCCCCCCC): 581.4 nm
emission maximum (in CCCCCCCCCCCCCCCC): 581.4 nm
emission maximum (in CCCCl): 584.8 nm
emission maximum (in CCN(CC)CC): 576.37 nm
emission maximum (in CCO): 579.71 nm
emission maximum (in CCOCC): 588.24 nm
emission maximum (in CO): 573.07 nm
emission maximum (in OC(C(F)(F)F)C(F)(F)F): 571.43 nm
emission maximum (in OCC(F)(F)F): 573.07 nm
emission maximum (in OCCO): 584.8 nm

emission maximum (in CN(C)C=O): 534 nm
SMILES: NCCCCCCCCCCCCN1C(=O)c2ccc3c4ccc5c6c(ccc(c7ccc(c2c37)C1=O)c64)C(=O)NC5=O

emission maximum (in C1CCOC1): 426 nm
emission maximum (in CO): 441 nm
SMILES: CCOC(=O)C1=CN(c2ccccc2)C=C(C(=O)OCC)C1

SMILES: CC[N+]1(CC)CN2C(=N1)C(C(=O)O)=Cc1cc(Oc3ccccc3)ccc12
emission maximum (in O): 485 nm

SMILES: CCCCCCCCCC1(CCCCCCCCC)c2cc(C#Cc3ccc(C#Cc4ccc(N(CCCCCC)CCCCCC)cc4)cc3)ccc2-c2ccc(C#Cc3ccc(C#Cc4ccc(N(CCCCCC)CCCCCC)cc4)cc3)cc21
emission maximum (in Cc1ccccc1): 433 nm

SMILES: COc1cc(OC)c(C2=C3C(C)=CC(C)=[N+]3[B-](F)(F)n3c(C)cc(C)c32)c(OC)c1
emission maximum (in C1CCOC1): 517 nm
emission maximum (in CC#N): 513 nm
emission maximum (in CC(=O)C(C)(C)C): 517 nm
emission maximum (in CC(C)=O): 515 nm
emission maximum (in CCCCCC): 520 nm
emission maximum (in CCOC(C)=O): 511 nm
emission maximum (in CO): 515 nm

SMILES: Cc1nnc(-c2cc(-n3c4ccccc4c4ccccc43)c(-n3c4ccccc4c4ccccc43)cc2-c2nnc(C)o2)o1
emission maximum (in CC#N): 504.62 nm
emission maximum (in Cc1ccccc1): 453 nm
emission maximum (in ClCCl): 485.51 nm

emission maximum (in C1CCCCC1): 468 nm
emission maximum (in CC#N): 497 nm
emission maximum (in ClC(Cl)Cl): 496 nm
SMILES: c1cc2ccc1CCCc1ccc(c3nsnc13)CCC2

emission maximum (in CCO): 416 nm
SMILES: COc1cc2c(cc1F)c(=O)c1cc(F)c(OC)cc1n2Cc1ccccc1

SMILES: CCN(CC)c1ccc2nc3c4ccccc4c(=O)cc-3oc2c1
emission maximum (in C1COCCO1): 582 nm
emission maximum (in CC#N): 620 nm
emission maximum (in CC(C)=O): 614 nm
emission maximum (in CCCCCC): 532 nm
emission maximum (in CCO): 638 nm
emission maximum (in CCOC(C)=O): 594 nm
emission maximum (in CO): 643 nm
emission maximum (in CS(C)=O): 635 nm
emission maximum (in Cc1ccccc1): 572 nm
emission maximum (in ClCCl): 608 nm

emission maximum (in CN(C)C=O): 536 nm
SMILES: CCCCCCCCCCCCN1C(=O)c2ccc3c4ccc5c6c(ccc(c7ccc(c2c37)C1=O)c64)C(=O)N(CCCCCCCCCCCC)C5=O

emission maximum (in ClCCl): 499 nm
SMILES: Cc1c(C(=O)c2c(F)cc(F)cc2F)c2ccc3cccc4c5cccc6ccc1c(c65)c2c34

emission maximum (in ClC(Cl)Cl): 337 nm
SMILES: c1cc2cc(c1)c1cccc(c1)c1cccc(c1)c1cccc(c1)c1cccc(c1)c1cccc2c1
